Test results reported in patent publication US20230000876A1, “TREATING CANCERS WITH A CYCLIN-DEPENDENT KINASE INHIBITOR” (Nuvation Bio Inc., priority 2021, published 2023).

How the values were obtained:
[1] = test system: U-87MG-luc orthotopic intracranial tumors; assay: U-87MG-luc glioblastoma orthotopic intracranial model, survival; assay type: in vivo, female BALB/c nude mice
Procedure: U-87MG-luc cells were derived from U-87MG parental cells acquired from ATCC by stably introducing the gene that encodes the luciferase (luc) protein. The U-87MG-luc cells were cultured at 37° C. in an atmosphere of 5% CO2 in air. The tumor cells were routinely subcultured twice weekly. The cells growing in an exponential growth phase were harvested and counted for tumor inoculation.
3×10^5 U-87MG-luc tumor cells were micro-injected into the right lobe (caudate nucleus) of the brain of each mouse. A total of 94 mice were inoculated. Ten days after cell inoculation, bioluminescence were measured by Xenogen IVIS Lumina II machine, 70 mice were selected and randomly assigned into 7 groups based on bioluminescence intensity and bodyweight. The mice were dosed according to Table 25.

[2] = test system: xBT474 breast tumor; assay: xBT474 breast tumor model (ER-negative/HER2-positive); conditions: Group 5: Compound (I) 30 mg/kg PO QD*28 days
[3] = test system: NCI-H460-luc; assay: CellTiter-Glo anti-proliferation assay, NCI-H460-luc; assay type: cell-based
Procedure: (§1) The anti-proliferation effect of 2 compounds (the compound of formula (I) and temozolomide) in 7 CNS metastasis cell lines (MOLT-4-luc, Nalm-6-luc, NCI-H460-luc, ACHN-luc2, PC-9-luc, H1975-luc, and KM12-luc) was evaluated.
(§2) The plating of cells and compound treatments are shown below in the plate map (Table 12). One plate was needed for the test of 2 compounds (the compound of formula (I) and temozolomide) in one cell line. The compound of formula (I) was tested from 10 μM, 3-fold serial dilution. Temozolomide was tested from 100 μM, 3-fold serial dilution.
(§3) All the cell lines were maintained in culture conditions at 37° C. in an atmosphere with 5% CO2 in air. The tumor cells were routinely subcultured. The cells growing in an exponential growth phase were harvested and counted for plating.
(§4) Cells were counted by haemocytometer with Trypan blue staining. Next, 135 μL of cell suspension were plated into the assay plates according to the plate map and 135 μL of assay medium into the blank wells. The plates were incubated at 37° C., 5% CO2, 95% air and 100% relative humidity overnight.
(§5) 4.4.4 Compound Plate (10×) Preparation and Compound Treatment • 10× concentrate compound plate preparation: Add 198 μL of assay medium into each well of the V-bottom plate; then transfer 2 μL of the stock compound solution of each concentration from the stock plate. Add 2 μL of DMSO into the Blank and Control wells. Pipette up and down to mix well. This V-plate is designated as the 10× concentrate compound plate. • For day 0 plate, add 15 μL of the DMSO-medium into the Control wells. The final DMSO concentration was 0.1%. Then directly proceed to cell viability assay. • For assay plate, add 15 μL of the compound-medium of each well from the 10× concentrate compound plate into the cells in 96-well assay plate according to the plate map. Add 15 μL of the DMSO-medium into the Blank and Control wells. The final DMSO concentration was 0.1%. • Return the assay plate into incubator and incubate for 6 days.
(§6) The procedures were performed according to the Promega CellTiter-Glo Luminescent Cell Viability Assay Kit manual (Promega-G7573). • The CellTiter-Glo buffer was thawed and equilibrated to room temperature prior to use. • CellTiter-Glo Substrate was equilibrated to room temperature prior to use. • The entire liquid volume of CellTiter-Glo Buffer was transferred into the amber bottle containing CellTiter-Glo Substrate to reconstitute the lyophilized enzyme/substrate mixture. This forms the CellTiter-Glo Reagent. • The contents were mixed by gently vortexing to obtain a homogeneous solution. • The plate was equilibrated and its contents to room temperature for approximately 30 minutes. 75 μL (equal to the half volume of culture medium present in each well) CellTiter-Glo • Reagent was added in each well. Plates were covered with aluminum foil to protect from light. • The contents were mixed for 2 minutes on an orbital shaker to induce cell lysis. • The plate was incubated at room temperature for 20 minutes to stabilize luminescent signal. • Record luminescence on the 2104 EnVision plate reader.
(§7) Inhibition rate (IR) of the tested compounds was determined by the following formula: IR (%)=(1−(RLU compound−RLU day0)/(RLU control−RLU day0))*100%. The inhibitions of different dose of compound were calculated in Excel file, and then were used to plot inhibition curves and evaluate related parameters, such as Min (%), Max (%) and GI50. The data were interpreted by GraphPad Prism.

[4] = test system: KM12-luc; assay: CellTiter-Glo anti-proliferation assay, KM12-luc; assay type: cell-based
Procedure: as §1, §2, §3, §4, §5, §6, §7

[5] = test system: 7 melanoma cell lines (A375, COLO 829, SK-MEL-3, SK-MEL-5, SK-MEL-24, SK-MEL-28, SK-MEL-31); assay: Anti-proliferation assay, 7 melanoma cell lines taken together; assay type: cell-based
Procedure: as §7
The anti-proliferation effect of the compound of formula (I) in 7 CNS melanoma cell lines was evaluated.

[6] = test system: MOLT-4-luc; assay: CellTiter-Glo anti-proliferation assay, MOLT-4-luc; assay type: cell-based
Procedure: as §1, §2, §3, §4, §5, §6, §7

[7] = test system: PC-9-luc; assay: CellTiter-Glo anti-proliferation assay, PC-9-luc; assay type: cell-based
Procedure: as §1, §2, §3, §4, §5, §6, §7

[8] = test system: 7 CNS metastasis cell lines (MOLT-4-luc, Nalm-6-luc, NCI-H460-luc, ACHN-luc2, PC-9-luc, H1975-luc, KM12-luc); assay: Anti-proliferation assay, 7 CNS metastasis cell lines taken together; assay type: cell-based
Procedure: as §1
The plating of cells and compound treatments are shown below in the plate map (Table 12). One plate was needed for the test of 2 compounds (the compound of formula (I) and temozolomide) in one cell line. The compound of formula (I) was tested from 10 μM, 3-fold serial dilution. Temozolomide was tested from 100 μM, 3-fold serial dilution. […]
as §6, with “This forms the CellTiter-Glo Reagent. • The contents were mixed by gently vortexing to obtain a homogeneous solution. • The plate was equilibrated and its contents to room temperature for approximately 30 minutes. 75 μL (equal to the half volume of culture medium present in each well) CellTiter-Glo • Reagent was added in each well.” left out, “reader. […]” for “reader.”

[9] = test system: SK-MEL-24; assay: Cell viability assay, melanoma cell line SK-MEL-24; assay type: cell-based
Procedure: as §5
as §6, with “This forms the CellTiter-Glo Reagent. • The contents were mixed by gently vortexing to obtain a homogeneous solution. • The plate was equilibrated and its contents to room temperature for approximately 30 minutes. 75 μL (equal to the half volume of culture medium present in each well) CellTiter-Glo • Reagent was added in each well.” left out
Inhibition rate (IR) of the tested compounds was determined by the following formula: IR (%)=(1−(RLU compound−RLU day0)/(RLU control−RLU day0))*100%. The inhibitions of different dose of compound were calculated in Excel file, and then were used to plot inhibition curves and evaluate related parameters, such as Min (%), Max (%) and GI50. […]

[10] = inhibition rate, 6 days, Compound (I) from 10 μM, temozolomide from 100 μM, 3-fold, 9 points
[11] = read-out: Absolute GI50 values, range over 7 cell lines
[12] = 144 h, 6 days incubation, read-out: Absolute GI50

CC(C)N1CCOc2c(F)cc(-c3nc(Nc4ccc(C5CCN(C)CC5)cn4)ncc3F)cc21 [Compound (I), 5-fluoro-4-(8-fluoro-4-isopropyl-3,4-dihydro-2H-benzo[b][1,4]oxazin-6-yl)-N-(5-(1-methylpiperidin-4-yl)pyridin-2-yl)pyrimidin-2-amine]
Median survival ([1]; 1 mg/kg PO*QD (vehicle 37 days)): 37 days
Median survival ([1]; 3 mg/kg PO*QD (vehicle 37 days)): 40.5 days
Median survival ([1]; 10 mg/kg PO*QD (vehicle 37 days)): 45 days
Median survival ([1]; 30 mg/kg IV*QW (vehicle 37 days)): 39.5 days
Median survival ([1]; 30 mg/kg PO*QD (vehicle 37 days)): 56 days
Survival compared to vehicle treated group ([1]; PO at 10 mg/kg and 30 mg/kg): significantly prolonged survival
Tumor volume (mean ± SEM) ([2]; Day 0): 146 ± 8 mm^3
Tumor volume (mean ± SEM) ([2]; Day 4): 240 ± 20 mm^3
Tumor volume (mean ± SEM) ([2]; Day 7): 250 ± 22 mm^3
Tumor volume (mean ± SEM) ([2]; Day 11): 347 ± 45 mm^3
Tumor volume (mean ± SEM) ([2]; Day 14): 408 ± 42 mm^3
Tumor volume (mean ± SEM) ([2]; Day 18): 490 ± 59 mm^3
Tumor volume (mean ± SEM) ([2]; Day 21): 549 ± 73 mm^3
Tumor volume (mean ± SEM) ([2]; Day 25): 576 ± 79 mm^3
Tumor volume (mean ± SEM) ([2]; Day 28): 617 ± 84 mm^3
Tumor volume (mean ± SEM) ([2]; Day 32): 658 ± 99 mm^3
Tumor volume (mean ± SEM) ([2]; Day 35): 721 ± 119 mm^3
Tumor volume (mean ± SEM) ([2]; Day 39): 685 ± 107 mm^3
Tumor volume (mean ± SEM) ([2]; Day 42): 694 ± 120 mm^3
Tumor volume (mean ± SEM) ([2]; Day 46): 707 ± 116 mm^3
GI50 ([3]; NCI-H460-Luc, 144 h, 6 days incubation, read-out: Absolute GI50): 0.228 µM
Max (%) [3, 10]: 101.1%
Min (%) [3, 10]: 1.9%
GI50 ([4]; KM12-Luc, 144 h, 6 days incubation, read-out: Absolute GI50): 0.654 µM
Max (%) [4, 10]: 111.2%
Min (%) [4, 10]: −15.2%
Inhibitory effect in cell viability assay [5]: significant inhibitory effects
GI50 [5, 11]: 0.156 to 1.24 µM
GI50 [6, 12]: 0.2 µM
Max (%) [6, 10]: 103.5%
Min (%) [6, 10]: −18.4%
GI50 [7, 12]: 2.79 µM
Max (%) [7, 10]: 116.3%
Min (%) [7, 10]: −13.7%
Inhibitory effect in cell viability assay ([8]; current testing concentrations): significant inhibitory effect
GI50 [8, 11]: 0.047 to 2.79 µM
GI50 ([9]; Homo sapiens, SK-MEL-24, read-out: Absolute GI50): 0.151 µM
Max (%) ([9]; inhibition rate): 113.43%
Min (%) ([9]; inhibition rate): 1.36%
